Article PMC8405091, “Microwave-assisted Phospha-Michael addition reactions in the 13α-oestrone series and in vitro antiproliferative properties” (Journal of Enzyme Inhibition and Medicinal Chemistry, 2021)

What was measured:
UPCI-SCC-131 cells = assay: MTT antiproliferative assay, UPCI-SCC-131; format: cell-based, human; details: for Growth inhibition; % ± SEM: 72 h
Protocol: (§1) The antiproliferative properties of the newly synthesized compounds (9–20) and their starting materials (4 and 5) were determined on a panel of human adherent cancer cell lines. MCF-7, MDA-MB-231 and T47D were isolated from breast cancers differing in biochemical background, while A2780 cells were isolated from ovarian cancer. HeLa and SiHa are cervical cancer cell lines positive for HPV-18 and HPV-16, respectively, while C33-A cervical cancer cells are negative for HPV. Moreover, two oropharyngeal cancer cell lines were also utilized: the HPV-negative UPCI-SCC-131 and HPV-16 positive UPCI-SCC-154. The cancer selectivity of compounds was tested on the non-cancerous mouse embryo fibroblast cell line NIH/3T3. All cell lines were purchased from European Collection of Cell Cultures (ECCAC, Salisbury, UK) exception for SiHa and C33-A (American Tissue Culture Collection, Manassas, VA, USA) and HN-SCC-131 and UPCI-SCC-154 (German Collection of Microorganisms and Cell Cultures GmbH, Braunschweig, Germany). Cells were cultivated in minimal essential medium supplemented with 10% fetal bovine serum, 1% non-essential amino acids and an antibiotic–antimycotic mixture. The medium of oropharyngeal cancer cells additionally contained 2.0 mM L-glutamine. All media and supplements were obtained from Lonza Group Ltd., Basel, Switzerland. Near-confluent cancer cells were seeded onto a 96-well microplate at a density of 5,000 cells/well, except for C33-A which were seeded at 10,000/well. After overnight standing, new medium containing the tested compounds at 10 and 30 µM final concentration was added. After incubation for 72 h at 37 °C in humidified air containing 5% CO2, the living cells were assayed by the addition of 20 μL of 5 mg/ml 3-(4,5-dimethylthiazol-2-yl)-2,5-diphenyltetrazolium bromide (MTT) solution. MTT was converted by intact mitochondrial reductase and precipitated as purple crystals during a 4-h contact period. The medium was next removed and the precipitated formazan crystals were dissolved in 100 μL of DMSO during a 60-min period of shaking at 37 ^оC.
(§2) All in vitro experiments were carried out twice with five parallels. Stock solutions of the tested substances (10 mM) were prepared in DMSO. […] Cisplatin (Ebewe Pharma GmbH, Unterach, Austria) was used as positive control.

SiHa cells = assay: MTT antiproliferative assay, SiHa; format: cell-based, human; details: 72 h
Protocol: as §1, §2

A2780 cells = assay: MTT antiproliferative assay, A2780; format: cell-based, human; details: for Growth inhibition; % ± SEM: 72 h
Protocol: as §1, §2

HeLa cells = assay: MTT antiproliferative assay, HeLa; format: cell-based, human; details: 72 h
Protocol: as §1, §2

MDA-MB-231 cells = assay: MTT antiproliferative assay, MDA-MB-231; format: cell-based, human; details: for Growth inhibition; % ± SEM: 72 h
Protocol: as §1, §2

MCF-7 cells = assay: MTT antiproliferative assay, MCF-7; format: cell-based, human; details: for Growth inhibition; % ± SEM: 72 h
Protocol: as §1, §2

T47D cells = assay: MTT antiproliferative assay, T47D; format: cell-based, human; details: 72 h
Protocol: as §1, §2

UPCI-SCC-154 cells = assay: MTT antiproliferative assay, UPCI-SCC-154; format: cell-based, human; details: for Growth inhibition; % ± SEM: 72 h
Protocol: as §1, §2

[1] = tested on: non-cancerous mouse embryo fibroblast (NIH/3T3) cells; assay: MTT assay on non-cancerous fibroblasts (tumour selectivity); format: cell-based; details: for Growth inhibition; % ± SEM: 72 h
Protocol: as §1, §2

C33-A cells = assay: MTT antiproliferative assay, C33-A; format: cell-based, human; details: C33-A, 72 h
Protocol: as §1, §2

[2] = read-out: calculated IC50 value

N.N.[Cl][Pt][Cl] [CIS, Cisplatin, reference compound]
Growth inhibition; % ± SEM (UPCI-SCC-131 cells; UPCI-SCC-131, 10 μM): 95.63 ± 1.49%
Growth inhibition; % ± SEM (UPCI-SCC-131 cells; UPCI-SCC-131, 30 μM): 95.09 ± 1.57%
IC50 (UPCI-SCC-131 cells; UPCI-SCC-131, 72 h, read-out: calculated IC50 value): 1.22 µM
Growth inhibition; % ± SEM (SiHa cells; 10 μM): 88.64 ± 0.50%
Growth inhibition; % ± SEM (SiHa cells; 30 μM): 90.18 ± 1.78%
IC50 (SiHa cells; [2]): 7.84 µM
Growth inhibition; % ± SEM (A2780 cells; A2780, 10 μM): 83.6 ± 1.2%
Growth inhibition; % ± SEM (A2780 cells; A2780, 30 μM): 95.0 ± 0.3%
IC50 (A2780 cells; A2780, 72 h, read-out: calculated IC50 value): 1.3 µM
Growth inhibition; % ± SEM (HeLa cells; 10 μM): 42.61 ± 2.33%
Growth inhibition; % ± SEM (HeLa cells; 30 μM): 99.93 ± 0.26%
IC50 (HeLa cells; [2]): 12.4 µM
Growth inhibition; % ± SEM (MDA-MB-231 cells; MDA-MB-231, 10 μM): – (Inhibition values <20% are not presented.)
Growth inhibition; % ± SEM (MDA-MB-231 cells; MDA-MB-231, 30 μM): 71.47 ± 1.20%
IC50 (MDA-MB-231 cells; MDA-MB-231, 72 h, read-out: calculated IC50 value): 19.1 µM
Growth inhibition; % ± SEM (MCF-7 cells; MCF-7, 10 μM): 66.91 ± 1.81%
Growth inhibition; % ± SEM (MCF-7 cells; MCF-7, 30 μM): 96.80 ± 0.35%
IC50 (MCF-7 cells; MCF-7, 72 h, read-out: calculated IC50 value): 5.78 µM
Growth inhibition; % ± SEM (T47D cells; 10 μM): 40.41 ± 1.25%
Growth inhibition; % ± SEM (T47D cells; 30 μM): 56.84 ± 1.16%
IC50 (T47D cells; [2]): 19.2 µM
Growth inhibition; % ± SEM (UPCI-SCC-154 cells; UPCI-SCC-154, 10 μM): 87.40 ± 1.72%
Growth inhibition; % ± SEM (UPCI-SCC-154 cells; UPCI-SCC-154, 30 μM): 92.72 ± 1.67%
IC50 (UPCI-SCC-154 cells; UPCI-SCC-154, 72 h, read-out: calculated IC50 value): 1.29 µM
Growth inhibition; % ± SEM ([1]; NIH/3T3, 10 μM): 76.74 ± 1.26%
Growth inhibition; % ± SEM ([1]; NIH/3T3, 30 μM): 96.90 ± 0.25%
IC50 ([1]; NIH/3T3, 72 h, read-out: calculated IC50 value): 4.73 µM
Growth inhibition; % ± SEM (C33-A cells; 10 μM): 85.98 ± 1.05%
Growth inhibition; % ± SEM (C33-A cells; 30 μM): 98.66 ± 0.21%
IC50 (C33-A cells; [2]): 4.13 µM

CC12CCC3c4ccc(OCc5ccccc5)cc4CCC3C1CC(CP(=O)(c1ccc3ccccc3c1)c1ccc3ccccc3c1)C2=O (stereo not drawn) [Compound 20, [(3-benzyloxy-17-oxo-13α-oestra-1,3,5(10)-trien-16β-yl)methyl]di(naphtalen-2-yl)phosphine oxide]
Growth inhibition; % ± SEM (UPCI-SCC-131 cells; UPCI-SCC-131, 10 μM, 10 µM): 48.25 ± 1.46%
Growth inhibition; % ± SEM (UPCI-SCC-131 cells; UPCI-SCC-131, 30 μM, 30 µM): 61.12 ± 1.32%
Growth inhibition; % ± SEM (SiHa cells; 10 μM): – (Inhibition values <20% are not presented.)
Growth inhibition; % ± SEM (SiHa cells; 30 μM): – (Inhibition values <20% are not presented.)
Growth inhibition; % ± SEM (A2780 cells; A2780, 10 μM): – (Inhibition values <20% are not presented.)
Growth inhibition; % ± SEM (A2780 cells; A2780, 30 μM, 30 µM): – (Inhibition values <20% are not presented.)
Growth inhibition; % ± SEM (HeLa cells; 10 μM): – (Inhibition values <20% are not presented.)
Growth inhibition; % ± SEM (HeLa cells; 30 μM): – (Inhibition values <20% are not presented.)
Growth inhibition; % ± SEM (MDA-MB-231 cells; MDA-MB-231, 10 μM): – (Inhibition values <20% are not presented.)
Growth inhibition; % ± SEM (MDA-MB-231 cells; MDA-MB-231, 30 μM): – (Inhibition values <20% are not presented.)
Growth inhibition; % ± SEM (MCF-7 cells; MCF-7, 10 μM, 10 µM): 28.24 ± 1.66%
Growth inhibition; % ± SEM (MCF-7 cells; MCF-7, 30 μM, 30 µM): 22.21 ± 2.78%
Growth inhibition; % ± SEM (T47D cells; 10 μM): 66.09 ± 0.76%
Growth inhibition; % ± SEM (T47D cells; 30 μM): 68.56 ± 1.81%
Growth inhibition; % ± SEM (UPCI-SCC-154 cells; UPCI-SCC-154, 10 μM, 10 µM): 30.97 ± 2.54%
Growth inhibition; % ± SEM (UPCI-SCC-154 cells; UPCI-SCC-154, 30 μM, 30 µM): 28.72 ± 1.11%
Growth inhibition; % ± SEM (C33-A cells; 10 μM): 27.94 ± 0.89%
Growth inhibition; % ± SEM (C33-A cells; 30 μM): 26.53 ± 1.06%
